Measured values from US9771327B2, “Compounds and methods for the treatment of cystic fibrosis” (FLATLEY DISCOVERY LAB, LLC, priority 2013, dated 2017).
pEC50: −log10 of the molar value.

Biological target: T1, human ΔF508-CFTR (Homo sapiens, UniProt P13569, DEL508-508)
T1 construct: expressed in transfected cells
Assay: CFTR-YFP high throughput assay, CFTR corrector protocol (YFP iodide flux quench)
Assay type: cell-based
Conditions: FRT cells expressing human ΔF508-CFTR and YFP-H148Q/I152L, 24-26 h incubation with compound
Experimental: Assays for Detecting and Measuring the Effect of Compounds on dF508-CFTR Channels CFRT-YFP High Throughput Assay-CFTR Corrector Protocol:
This protocol is designed to selectively screen small molecule compounds for F508del CFTR corrector activities in the HTS YFP flux assay. In this protocol, the cells are incubated with testing compounds for 24 hours, washed with PBS, stimulated with forskolin and a standard potentiator, and read on a 384-well HTS plate reader, such as the Hamamatsu FDDD-6000.
YFP fluorescence intensity is acquired at high speed before and after iodide buffer is injected to the assay cells. Iodide enters the cells via active CFTR channels in the plasma membrane, and quenches the YFP fluorescence. The rate of fluorescence quenching is proportionally related to the total CFTR activities in the cell membrane. dF508-CFTR corrector accelerates YFP quenching by increasing the number of CFTR molecules in the testing cell plasma membrane.
This method was initially developed for bench top plate readers (Galietta et al., 2001), and was adapted to the HTS format (Sui et al. Assay Drug Dev. Technol. 2010).
Fisher Rat Thyroid (FRT) cells stably expressing both human ΔF508-CFTR and a halide-sensitive yellow fluorescent protein (YFP-H148Q/I152L 25,22) (Galietta et al., Am. J. Physiol Cell Physiol, 281(5), C1734, 2001) were cultured on plastic surface in Coon's modified Ham's F12 medium supplemented with FBS 10%, L-glutamine 2 mM, penicillin 100 U/ml, and streptomycin 100 μg/ml. G418 (0.75-1.0 mg/ml) and zeocin (3.2 ug/ml) were used for selection of FRT cells expressing ΔF508-CFTR and YFP. For primary screening, FRT cells were plated into 384-well black wall, transparent bottom microtiter plates (Costar; Corning Inc.) at a cell density of 20,000-40,000 per well. Test compound was applied to the cells at varying concentrations ranging from 2 nM-[…] in either a 2-fold or 3-fold dilution series. Cells were incubated in a cell culture incubator at 37° C. with 5% CO2 for 24-26 h. Assay plates were washed with DPBS media (Thermo, cat #SH30028.02) to remove unbound cells and compound. Stimulation media (25 μL) containing 20 μM Forskolin & 30 μM P3 [6-(Ethyl-phenyl-sulfonyl)-4-oxo-1,4-dihydro-quinoline-3-carboxylic acid 2-methoxy-benzylamide] in Hams F-12 coon's modified media was added to the plate wells and incubated at room temperature for 60-120 min. 25 μL of HEPES-PBS -I buffer (10 mM HEPES, 1 mM MgCl2, 3 mM KCl, 1 mM CaCl2, 150 mM NaI) was then added and fluorescence quench curves (Excitation 500 nm/Emission 540 nm; exposure 136 ms) were immediately recorded on an FDSS-6000 plate reader (Hamamatsu). Quench rates were derived from least squares fitting of the data as described by Sui et al. (2010).

T1 sequence (P13569 with tags, fused parts or gaps DEL508-508): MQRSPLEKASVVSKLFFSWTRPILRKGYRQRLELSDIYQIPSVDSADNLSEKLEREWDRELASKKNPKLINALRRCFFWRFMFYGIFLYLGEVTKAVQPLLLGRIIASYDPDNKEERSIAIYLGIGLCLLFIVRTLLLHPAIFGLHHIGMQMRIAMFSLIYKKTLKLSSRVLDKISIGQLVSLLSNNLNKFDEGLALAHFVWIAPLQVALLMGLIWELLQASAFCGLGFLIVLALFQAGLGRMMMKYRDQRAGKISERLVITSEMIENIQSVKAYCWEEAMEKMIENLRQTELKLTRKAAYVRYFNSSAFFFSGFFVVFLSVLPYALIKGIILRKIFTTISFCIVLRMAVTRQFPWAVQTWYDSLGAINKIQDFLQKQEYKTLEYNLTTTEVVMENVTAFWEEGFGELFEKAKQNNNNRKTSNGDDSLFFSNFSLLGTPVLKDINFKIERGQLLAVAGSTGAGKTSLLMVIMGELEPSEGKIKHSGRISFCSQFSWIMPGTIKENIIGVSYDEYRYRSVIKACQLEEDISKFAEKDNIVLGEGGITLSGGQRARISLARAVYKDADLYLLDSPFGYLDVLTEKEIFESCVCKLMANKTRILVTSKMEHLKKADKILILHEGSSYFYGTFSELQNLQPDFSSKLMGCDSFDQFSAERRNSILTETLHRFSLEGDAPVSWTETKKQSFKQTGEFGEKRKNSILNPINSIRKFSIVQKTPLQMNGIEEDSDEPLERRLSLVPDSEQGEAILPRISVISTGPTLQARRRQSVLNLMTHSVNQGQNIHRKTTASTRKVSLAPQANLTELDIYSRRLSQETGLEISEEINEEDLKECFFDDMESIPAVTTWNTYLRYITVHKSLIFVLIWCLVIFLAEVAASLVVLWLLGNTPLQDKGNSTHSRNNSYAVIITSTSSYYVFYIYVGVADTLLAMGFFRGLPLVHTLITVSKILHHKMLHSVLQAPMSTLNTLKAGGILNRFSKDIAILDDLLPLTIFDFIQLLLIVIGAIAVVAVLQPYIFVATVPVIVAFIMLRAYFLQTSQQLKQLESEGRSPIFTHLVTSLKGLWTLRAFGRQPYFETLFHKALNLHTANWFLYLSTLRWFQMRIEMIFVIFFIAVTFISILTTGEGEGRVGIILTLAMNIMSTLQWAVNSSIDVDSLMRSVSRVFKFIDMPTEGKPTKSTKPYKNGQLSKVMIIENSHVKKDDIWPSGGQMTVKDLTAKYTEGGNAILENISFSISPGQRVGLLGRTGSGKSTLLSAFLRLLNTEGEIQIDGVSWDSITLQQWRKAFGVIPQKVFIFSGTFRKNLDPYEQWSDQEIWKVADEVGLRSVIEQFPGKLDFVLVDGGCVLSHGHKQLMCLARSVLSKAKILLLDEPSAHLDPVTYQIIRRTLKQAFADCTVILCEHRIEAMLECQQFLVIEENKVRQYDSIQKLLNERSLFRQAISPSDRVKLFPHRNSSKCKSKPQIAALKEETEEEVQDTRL

- Emax (normalized to the positive control, read-out: EMAX (% Efficacy, EMAX normalized to the positive control)): 30 to 80%
- pEC50 (stimulated with 20 μM Forskolin & 30 μM P3): > 5.00
SMILES: O=S(=O)(c1ccc2c(c1)OCO2)N1CCC(n2c(-c3ccccc3)nc3cccnc32)CC1 [Example 5, 3-(1-(Benzo[d][1,3]dioxol-5-ylsulfonyl)piperidin-4-yl)-2-phenyl-3H-imidazo[4,5-b]pyridine]
